Test results as given in the supplement of paper PMC10307832.

Assays:
Test in all cases: relative viability (nuclei count vs DMSO), 5 days (fraction); higher = more cells survive
VE-821 + Linsitinib = compound: CS(=O)(=O)c1ccc(-c2cnc(N)c(C(=O)Nc3ccccc3)n2)cc1 [VE-821] + C[C@]1(O)C[C@@H](c2nc(-c3ccc4ccc(-c5ccccc5)nc4c3)c3c(N)nccn32)C1 [Linsitinib] (partner 1 µM)
Summary of the method: (§1)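 Cells from lung cancer lines were seeded into 1536-well plates and, one day later, dosed by pin tool. Treatments were either a single drug or a fixed dose of an anchor drug with five library-drug doses (not always all listed) in √10 steps. After 5 days, nuclei were stained in a one-step fixation (final 0.05% Triton X-100, 1% formaldehyde, 1 ug/ml Hoechst) and counted on 4× images, and relative viability is the treated-to-vehicle nuclei ratio, as the median of duplicate plates.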

Vismodegib + Decitabine = compound: CS(=O)(=O)c1ccc(C(=O)Nc2ccc(Cl)c(-c3ccccn3)c2)c(Cl)c1 [Vismodegib] + Nc1ncn([C@H]2C[C@H](O)[C@@H](CO)O2)c(=O)n1 [Decitabine] (partner 2 µM)
Summary of the method: as §1

Vismodegib + Foretinib = compound: CS(=O)(=O)c1ccc(C(=O)Nc2ccc(Cl)c(-c3ccccn3)c2)c(Cl)c1 [Vismodegib] + COc1cc2c(Oc3ccc(NC(=O)C4(C(=O)Nc5ccc(F)cc5)CC4)cc3F)ccnc2cc1OCCCN1CCOCC1 [Foretinib] (partner 0.25 µM)
Summary of the method: as §1

Ruxolitinib + Alpelisib = compound: N#CC[C@H](C1CCCC1)n1cc(-c2ncnc3[nH]ccc23)cn1 [Ruxolitinib] + Cc1nc(NC(=O)N2CCC[C@H]2C(N)=O)sc1-c1ccnc(C(C)(C)C(F)(F)F)c1 [Alpelisib] (partner 2 µM)
Summary of the method: as §1

NCI-H1993
relative viability (VE-821 + Linsitinib; first compound 0.08 µM): 0.729
relative viability (VE-821 + Linsitinib; first compound 0.253 µM): 0.668
relative viability (VE-821 + Linsitinib; first compound 0.8 µM): 0.764
relative viability (VE-821 + Linsitinib; first compound 2.53 µM): 0.697
relative viability (VE-821 + Linsitinib; first compound 8 µM): 0.595
relative viability (Vismodegib + Decitabine; first compound 0.08 µM): 0.524
relative viability (Vismodegib + Decitabine; first compound 0.253 µM): 0.68
relative viability (Vismodegib + Decitabine; first compound 0.8 µM): 0.588
relative viability (Vismodegib + Decitabine; first compound 2.53 µM): 0.587
relative viability (Vismodegib + Decitabine; first compound 8 µM): 0.543
relative viability (Vismodegib + Foretinib; first compound 0.08 µM): 0.863
relative viability (Vismodegib + Foretinib; first compound 0.253 µM): 0.654
relative viability (Vismodegib + Foretinib; first compound 0.8 µM): 0.782
relative viability (Vismodegib + Foretinib; first compound 2.53 µM): 0.773
relative viability (Vismodegib + Foretinib; first compound 8 µM): 0.675
relative viability (Ruxolitinib + Alpelisib; first compound 0.08 µM): 0.705
relative viability (Ruxolitinib + Alpelisib; first compound 0.253 µM): 0.71
relative viability (Ruxolitinib + Alpelisib; first compound 0.8 µM): 0.678
relative viability (Ruxolitinib + Alpelisib; first compound 2.53 µM): 0.722
relative viability (Ruxolitinib + Alpelisib; first compound 8 µM): 0.675

RERF-LC-KJ
relative viability (VE-821 + Linsitinib; first compound 0.08 µM): 0.902
relative viability (VE-821 + Linsitinib; first compound 0.253 µM): 0.871
relative viability (VE-821 + Linsitinib; first compound 0.8 µM): 0.819
relative viability (VE-821 + Linsitinib; first compound 2.53 µM): 0.875
relative viability (VE-821 + Linsitinib; first compound 8 µM): 0.753
relative viability (Vismodegib + Decitabine; first compound 0.08 µM): 0.704
relative viability (Vismodegib + Decitabine; first compound 0.253 µM): 0.7
relative viability (Vismodegib + Decitabine; first compound 0.8 µM): 0.765
relative viability (Vismodegib + Decitabine; first compound 2.53 µM): 0.654
relative viability (Vismodegib + Decitabine; first compound 8 µM): 0.633
relative viability (Vismodegib + Foretinib; first compound 0.08 µM): 0.826
relative viability (Vismodegib + Foretinib; first compound 0.253 µM): 0.848
relative viability (Vismodegib + Foretinib; first compound 0.8 µM): 0.852
relative viability (Vismodegib + Foretinib; first compound 2.53 µM): 0.85
relative viability (Vismodegib + Foretinib; first compound 8 µM): 0.821
relative viability (Ruxolitinib + Alpelisib; first compound 0.08 µM): 0.811
relative viability (Ruxolitinib + Alpelisib; first compound 0.253 µM): 0.775
relative viability (Ruxolitinib + Alpelisib; first compound 0.8 µM): 0.892
relative viability (Ruxolitinib + Alpelisib; first compound 2.53 µM): 0.877
relative viability (Ruxolitinib + Alpelisib; first compound 8 µM): 0.771

NCI-H1755
relative viability (VE-821 + Linsitinib; first compound 0.08 µM): 1.05
relative viability (VE-821 + Linsitinib; first compound 0.253 µM): 0.978
relative viability (VE-821 + Linsitinib; first compound 0.8 µM): 0.795
relative viability (VE-821 + Linsitinib; first compound 2.53 µM): 0.958
relative viability (VE-821 + Linsitinib; first compound 8 µM): 0.898
relative viability (Vismodegib + Decitabine; first compound 0.08 µM): 0.686
relative viability (Vismodegib + Decitabine; first compound 0.253 µM): 0.727
relative viability (Vismodegib + Decitabine; first compound 0.8 µM): 0.693
relative viability (Vismodegib + Decitabine; first compound 2.53 µM): 0.677
relative viability (Vismodegib + Decitabine; first compound 8 µM): 0.723
relative viability (Vismodegib + Foretinib; first compound 0.08 µM): 0.894
relative viability (Vismodegib + Foretinib; first compound 0.253 µM): 0.91
relative viability (Vismodegib + Foretinib; first compound 0.8 µM): 0.947
relative viability (Vismodegib + Foretinib; first compound 2.53 µM): 0.96
relative viability (Vismodegib + Foretinib; first compound 8 µM): 0.913
relative viability (Ruxolitinib + Alpelisib; first compound 0.08 µM): 0.885
relative viability (Ruxolitinib + Alpelisib; first compound 0.253 µM): 0.904
relative viability (Ruxolitinib + Alpelisib; first compound 0.8 µM): 0.97
relative viability (Ruxolitinib + Alpelisib; first compound 2.53 µM): 0.796
relative viability (Ruxolitinib + Alpelisib; first compound 8 µM): 0.623

NCI-H1666
relative viability (VE-821 + Linsitinib; first compound 0.08 µM): 0.765
relative viability (VE-821 + Linsitinib; first compound 0.253 µM): 0.884
relative viability (VE-821 + Linsitinib; first compound 0.8 µM): 0.777
relative viability (VE-821 + Linsitinib; first compound 2.53 µM): 0.857
relative viability (VE-821 + Linsitinib; first compound 8 µM): 0.553
relative viability (Vismodegib + Decitabine; first compound 0.08 µM): 0.763
relative viability (Vismodegib + Decitabine; first compound 0.253 µM): 0.774
relative viability (Vismodegib + Decitabine; first compound 0.8 µM): 0.739
relative viability (Vismodegib + Decitabine; first compound 2.53 µM): 0.676
relative viability (Vismodegib + Decitabine; first compound 8 µM): 0.69
relative viability (Vismodegib + Foretinib; first compound 0.08 µM): 1.01
relative viability (Vismodegib + Foretinib; first compound 0.253 µM): 0.935
relative viability (Vismodegib + Foretinib; first compound 0.8 µM): 1.05
relative viability (Vismodegib + Foretinib; first compound 2.53 µM): 0.925
relative viability (Vismodegib + Foretinib; first compound 8 µM): 0.936
relative viability (Ruxolitinib + Alpelisib; first compound 0.08 µM): 0.973
relative viability (Ruxolitinib + Alpelisib; first compound 0.253 µM): 0.821
relative viability (Ruxolitinib + Alpelisib; first compound 0.8 µM): 1.06
relative viability (Ruxolitinib + Alpelisib; first compound 2.53 µM): 0.823
relative viability (Ruxolitinib + Alpelisib; first compound 8 µM): 1

NCI-H2085
relative viability (VE-821 + Linsitinib; first compound 0.08 µM): 0.979
relative viability (VE-821 + Linsitinib; first compound 0.253 µM): 0.891
relative viability (VE-821 + Linsitinib; first compound 0.8 µM): 0.847
relative viability (VE-821 + Linsitinib; first compound 2.53 µM): 0.941
relative viability (VE-821 + Linsitinib; first compound 8 µM): 0.926
relative viability (Vismodegib + Decitabine; first compound 0.08 µM): 0.548
relative viability (Vismodegib + Decitabine; first compound 0.253 µM): 0.461
relative viability (Vismodegib + Decitabine; first compound 0.8 µM): 0.544
relative viability (Vismodegib + Decitabine; first compound 2.53 µM): 0.56
relative viability (Vismodegib + Decitabine; first compound 8 µM): 0.561
relative viability (Vismodegib + Foretinib; first compound 0.08 µM): 0.86
relative viability (Vismodegib + Foretinib; first compound 0.253 µM): 0.96
relative viability (Vismodegib + Foretinib; first compound 0.8 µM): 0.989
relative viability (Vismodegib + Foretinib; first compound 2.53 µM): 0.755
relative viability (Vismodegib + Foretinib; first compound 8 µM): 0.796
relative viability (Ruxolitinib + Alpelisib; first compound 0.08 µM): 0.971
relative viability (Ruxolitinib + Alpelisib; first compound 0.253 µM): 1.02
relative viability (Ruxolitinib + Alpelisib; first compound 0.8 µM): 1.13
relative viability (Ruxolitinib + Alpelisib; first compound 2.53 µM): 0.979
relative viability (Ruxolitinib + Alpelisib; first compound 8 µM): 0.822

BEN
relative viability (VE-821 + Linsitinib; first compound 0.08 µM): 0.967
relative viability (VE-821 + Linsitinib; first compound 0.253 µM): 0.871
relative viability (VE-821 + Linsitinib; first compound 0.8 µM): 0.793
relative viability (VE-821 + Linsitinib; first compound 2.53 µM): 0.911
relative viability (VE-821 + Linsitinib; first compound 8 µM): 0.753
relative viability (Vismodegib + Decitabine; first compound 0.08 µM): 0.684
relative viability (Vismodegib + Decitabine; first compound 0.253 µM): 0.691
relative viability (Vismodegib + Decitabine; first compound 0.8 µM): 0.648
relative viability (Vismodegib + Decitabine; first compound 2.53 µM): 0.697
relative viability (Vismodegib + Decitabine; first compound 8 µM): 0.782
relative viability (Vismodegib + Foretinib; first compound 0.08 µM): 0.871
relative viability (Vismodegib + Foretinib; first compound 0.253 µM): 0.799
relative viability (Vismodegib + Foretinib; first compound 0.8 µM): 0.606
relative viability (Vismodegib + Foretinib; first compound 2.53 µM): 0.642
relative viability (Vismodegib + Foretinib; first compound 8 µM): 0.644
relative viability (Ruxolitinib + Alpelisib; first compound 0.08 µM): 0.944
relative viability (Ruxolitinib + Alpelisib; first compound 0.253 µM): 0.965
relative viability (Ruxolitinib + Alpelisib; first compound 0.8 µM): 1.16
relative viability (Ruxolitinib + Alpelisib; first compound 2.53 µM): 0.956
relative viability (Ruxolitinib + Alpelisib; first compound 8 µM): 1.08

NCI-H661
relative viability (VE-821 + Linsitinib; first compound 0.08 µM): 0.539
relative viability (VE-821 + Linsitinib; first compound 0.253 µM): 0.568
relative viability (VE-821 + Linsitinib; first compound 0.8 µM): 0.481
relative viability (VE-821 + Linsitinib; first compound 2.53 µM): 0.493
relative viability (VE-821 + Linsitinib; first compound 8 µM): 0.4
relative viability (Vismodegib + Decitabine; first compound 0.08 µM): 0.47
relative viability (Vismodegib + Decitabine; first compound 0.253 µM): 0.528
relative viability (Vismodegib + Decitabine; first compound 0.8 µM): 0.549
relative viability (Vismodegib + Decitabine; first compound 2.53 µM): 0.575
relative viability (Vismodegib + Decitabine; first compound 8 µM): 0.577
relative viability (Vismodegib + Foretinib; first compound 0.08 µM): 1.07
relative viability (Vismodegib + Foretinib; first compound 0.253 µM): 1.02
relative viability (Vismodegib + Foretinib; first compound 0.8 µM): 0.99
relative viability (Vismodegib + Foretinib; first compound 2.53 µM): 0.961
relative viability (Vismodegib + Foretinib; first compound 8 µM): 1.09
relative viability (Ruxolitinib + Alpelisib; first compound 0.08 µM): 0.406
relative viability (Ruxolitinib + Alpelisib; first compound 0.253 µM): 0.623
relative viability (Ruxolitinib + Alpelisib; first compound 0.8 µM): 0.579
relative viability (Ruxolitinib + Alpelisib; first compound 2.53 µM): 0.583
relative viability (Ruxolitinib + Alpelisib; first compound 8 µM): 0.252

NCI-H1395
relative viability (VE-821 + Linsitinib; first compound 0.08 µM): 1.07
relative viability (VE-821 + Linsitinib; first compound 0.253 µM): 1.01
relative viability (VE-821 + Linsitinib; first compound 0.8 µM): 0.893
relative viability (VE-821 + Linsitinib; first compound 2.53 µM): 1.05
relative viability (VE-821 + Linsitinib; first compound 8 µM): 0.683
relative viability (Vismodegib + Decitabine; first compound 0.08 µM): 0.736
relative viability (Vismodegib + Decitabine; first compound 0.253 µM): 0.696
relative viability (Vismodegib + Decitabine; first compound 0.8 µM): 0.693
relative viability (Vismodegib + Decitabine; first compound 2.53 µM): 0.71
relative viability (Vismodegib + Decitabine; first compound 8 µM): 0.727
relative viability (Vismodegib + Foretinib; first compound 0.08 µM): 0.918
relative viability (Vismodegib + Foretinib; first compound 0.253 µM): 0.873
relative viability (Vismodegib + Foretinib; first compound 0.8 µM): 0.999
relative viability (Vismodegib + Foretinib; first compound 2.53 µM): 0.961
relative viability (Vismodegib + Foretinib; first compound 8 µM): 1.03
relative viability (Ruxolitinib + Alpelisib; first compound 0.253 µM): 1.27
relative viability (Ruxolitinib + Alpelisib; first compound 0.8 µM): 1.21
relative viability (Ruxolitinib + Alpelisib; first compound 2.53 µM): 1.02
relative viability (Ruxolitinib + Alpelisib; first compound 8 µM): 0.892
